Measurements taken from patent US20180000085A1, “USE OF PICOLINAMIDE COMPOUNDS WITH FUNGICIDAL ACTIVITY” (DOW AGROSCIENCES LLC, priority 2014, published 2018).

Columns and labels:
Assay type in all cases: in vivo
Settings in all cases: 100 ppm, 1 Day Protectant
[1] = tested on: Rhyncosporium secalis; experiment: Barley scald (RHYNSE) disease control; parameters: key: A: > 80; B: ≤ 80; C: Not Tested; D: No Activity Observed in the Reported Assay
Protocol: All fungicides were evaluated using the aforementioned method for their activity vs. all target diseases, unless stated otherwise. Wheat leaf blotch and brown rust activity were also evaluated using track spray applications, in which case the fungicides were formulated as EC formulations, containing 0.1% Trycol 5941 in the spray solutions. Wheat plants (variety Yuma) were grown from seed in a greenhouse in 50% mineral soil/50% soil-less Metro mix until the first leaf was fully emerged, with 7-10 seedlings per pot. These plants were inoculated with an aqueous spore suspension of Zymoseptoria tritici either prior to or after fungicide treatments. After inoculation the plants were kept in 100% relative humidity (one day in a dark dew chamber followed by two to three days in a lighted dew chamber at 20° C.) to permit spores to germinate and infect the leaf. The plants were then transferred to a greenhouse set at 20° C. for disease to develop. When disease symptoms were fully expressed on the 1st leaves of untreated plants, infection levels were assessed on a scale of 0 to 100 percent disease severity. Percent disease control was calculated using the ratio of disease severity on treated plants relative to untreated plants. Example H: Evaluation of Fungicidal Activity: Barley Scald (Rhyncosporium secalis; Bayer Code […]) Barley seedlings (variety Harrington) were propagated in soil-less Metro mix, with each pot having 8 to 12 plants, and used in the test when first leaf was fully emerged. Test plants were inoculated by an aqueous spore suspension of Rhyncosporium secalis 24 hr after fungicide treatments. After inoculation the plants were kept in a dew room at 22° C. with 100% relative humidity for 48 hr. The plants were then transferred to a greenhouse set at 20° C. for disease to develop. Fungicide formulation, application and disease assessment on the sprayed leaves followed the procedures as described in the Example A.

[2] = tested on: Leptosphaeria nodorum; experiment: Wheat glume blotch (LEPTNO) disease control
Protocol: All fungicides were evaluated using the aforementioned method for their activity vs. all target diseases, unless stated otherwise. Wheat leaf blotch and brown rust activity were also evaluated using track spray applications, in which case the fungicides were formulated as EC formulations, containing 0.1% Trycol 5941 in the spray solutions. Wheat plants (variety Yuma) were grown from seed in a greenhouse in 50% mineral soil/50% soil-less Metro mix until the first leaf was fully emerged, with 7-10 seedlings per pot. These plants were inoculated with an aqueous spore suspension of Zymoseptoria tritici either prior to or after fungicide treatments. After inoculation the plants were kept in 100% relative humidity (one day in a dark dew chamber followed by two to three days in a lighted dew chamber at 20° C.) to permit spores to germinate and infect the leaf. The plants were then transferred to a greenhouse set at 20° C. for disease to develop. When disease symptoms were fully expressed on the 1st leaves of untreated plants, infection levels were assessed on a scale of 0 to 100 percent disease severity. Percent disease control was calculated using the ratio of disease severity on treated plants relative to untreated plants. Example C: Evaluation of Fungicidal Activity: Wheat Glume Blotch (Leptosphaeria nodorum; Bayer Code […]) Wheat plants (variety Yuma) were grown from seed in a greenhouse in 50% mineral soil/50% soil-less Metro mix until the first leaf was fully emerged, with 7-10 seedlings per pot. These plants were inoculated with an aqueous spore suspension of Leptosphaeria nodorum 24 hr after fungicide treatments. After inoculation the plants were kept in 100% relative humidity (one day in a dark dew chamber followed by two days in a lighted dew chamber at 20° C.) to permit spores to germinate and infect the leaf. The plants were then transferred to a greenhouse set at 20° C. for disease to develop. Fungicide formulation, application and disease assessment followed the procedures as described in the Example A.

[3] = tested on: Venturia inaequalis; experiment: Apple scab (VENTIN) disease control
Protocol: All fungicides were evaluated using the aforementioned method for their activity vs. all target diseases, unless stated otherwise. Wheat leaf blotch and brown rust activity were also evaluated using track spray applications, in which case the fungicides were formulated as EC formulations, containing 0.1% Trycol 5941 in the spray solutions. Wheat plants (variety Yuma) were grown from seed in a greenhouse in 50% mineral soil/50% soil-less Metro mix until the first leaf was fully emerged, with 7-10 seedlings per pot. These plants were inoculated with an aqueous spore suspension of Zymoseptoria tritici either prior to or after fungicide treatments. After inoculation the plants were kept in 100% relative humidity (one day in a dark dew chamber followed by two to three days in a lighted dew chamber at 20° C.) to permit spores to germinate and infect the leaf. The plants were then transferred to a greenhouse set at 20° C. for disease to develop. When disease symptoms were fully expressed on the 1st leaves of untreated plants, infection levels were assessed on a scale of 0 to 100 percent disease severity. Percent disease control was calculated using the ratio of disease severity on treated plants relative to untreated plants. […] Seedlings with two expanding young leaves at the top (older leaves at bottom of the plants were trimmed) were used in the test. Plants were inoculated with a spore suspension of Venturia inaequalis 24 hr after fungicide treatment and kept in a 22° C. dew chamber with 100% relative humidity for 48 hr, and then moved to a greenhouse set at 20° C. for disease to develop. Fungicide formulation, application and disease assessment on the sprayed leaves followed the procedures as described in the Example A.

[4] = tested on: Erysiphe cichoracearum; experiment: Powdery mildew of cucumber (ERYSCI) disease control
Protocol: All fungicides were evaluated using the aforementioned method for their activity vs. all target diseases, unless stated otherwise. Wheat leaf blotch and brown rust activity were also evaluated using track spray applications, in which case the fungicides were formulated as EC formulations, containing 0.1% Trycol 5941 in the spray solutions. Wheat plants (variety Yuma) were grown from seed in a greenhouse in 50% mineral soil/50% soil-less Metro mix until the first leaf was fully emerged, with 7-10 seedlings per pot. These plants were inoculated with an aqueous spore suspension of Zymoseptoria tritici either prior to or after fungicide treatments. After inoculation the plants were kept in 100% relative humidity (one day in a dark dew chamber followed by two to three days in a lighted dew chamber at 20° C.) to permit spores to germinate and infect the leaf. The plants were then transferred to a greenhouse set at 20° C. for disease to develop. When disease symptoms were fully expressed on the 1st leaves of untreated plants, infection levels were assessed on a scale of 0 to 100 percent disease severity. Percent disease control was calculated using the ratio of disease severity on treated plants relative to untreated plants. […] Plants were inoculated with a spore suspension 24 hr following fungicide treatments. After inoculation the plants remained in the greenhouse set at 20° C. until disease was fully expressed. Fungicide formulation, application and disease assessment on the sprayed leaves followed the procedures as described in the Example A.

Row | Structure (SMILES) | RHYNSE disease control, 1DP [1] | LEPTNO disease control, 1DP [2] | VENTIN disease control, 1DP [3] | ERYSCI disease control, 1DP [4]
1 | CCCOC(CC)C(Oc1ccccc1)C(C)OC(=O)C(C)NC(=O)c1nccc(OC)c1OCOC(C)=O (stereo not drawn) [Cmpd 446] | B (≤ 80) | A (> 80) | – | –
2 | COc1ccnc(C(=O)N[C@@H](C)C(=O)O[C@@H](C)[C@H](Oc2ccccc2)C(C)C)c1OCOC(C)=O [Cmpd 475] | B (≤ 80) | A (> 80) | A (> 80) | B (≤ 80)
3 | CC[C@@H](CCOC)[C@@H](Oc1ccccc1)[C@H](C)OC(=O)[C@H](C)NC(=O)c1nccc(OC)c1OCOC(C)=O [Cmpd 476] | B (≤ 80) | A (> 80) | – | B (≤ 80)
4 | CCC(CC)[C@@H](Oc1ccccc1)[C@H](C)OC(=O)[C@H](C)NC(=O)c1nccc(OC)c1OCOC(C)=O [Cmpd 477] | B (≤ 80) | A (> 80) | B (≤ 80) | A (> 80)
5 | COc1ccnc(C(=O)N[C@@H](C)C(=O)O[C@@H](C)[C@H](Oc2ccccc2)C(C)C)c1OC(C)=O [Cmpd 478] | B (≤ 80) | A (> 80) | – | B (≤ 80)
6 | CC[C@@H](CCOC)[C@@H](Oc1ccccc1)[C@H](C)OC(=O)[C@H](C)NC(=O)c1nccc(OC)c1OC(C)=O [Cmpd 482] | – | A (> 80) | – | B (≤ 80)
7 | COc1ccnc(C(=O)N[C@@H](C)C(=O)O[C@@H](C)[C@H](Oc2ccccc2)c2ccccc2)c1OCOC(C)=O [Cmpd 500] | A (> 80) | A (> 80) | B (≤ 80) | –
8 | COc1ccnc(C(=O)N[C@@H](C)C(=O)O[C@H](C)[C@@H](Oc2ccccc2)c2ccccc2)c1OCOC(C)=O [Cmpd 547] | – | – | B (≤ 80) | –
9 | COc1ccnc(C(=O)N[C@H](C)C(=O)O[C@H](C)[C@@H](Oc2ccccc2)C(C)C)c1OCOC(C)=O [Cmpd 548] | – | – | B (≤ 80) | –
10 | COc1ccnc(C(=O)N[C@H](C)C(=O)O[C@H](C)[C@@H](Oc2ccccc2)c2ccccc2)c1OCOC(C)=O [Cmpd 549] | – | – | B (≤ 80) | –
11 | COc1ccnc(C(=O)N[C@@H](C)C(=O)O[C@@H](C)[C@@H](Oc2ccccc2)C(C)C)c1OCOC(C)=O [Cmpd 552] | – | – | B (≤ 80) | –
12 | COc1ccnc(C(=O)N[C@@H](C)C(=O)O[C@@H](C)[C@H](Oc2ccccc2)C2CCCC2)c1OCOC(C)=O [Cmpd 556] | B (≤ 80) | A (> 80) | A (> 80) | –
13 | COc1ccnc(C(=O)N[C@@H](C)C(=O)O[C@@H](C)[C@@H](CC(C)C)Oc2ccccc2)c1OCOC(C)=O [Cmpd 557] | – | – | B (≤ 80) | –
14 | COc1ccnc(C(=O)N[C@H](C)C(=O)O[C@@H](C)[C@H](Oc2ccccc2)C(C)C)c1OCOC(C)=O [Cmpd 558] | – | – | B (≤ 80) | –
15 | COc1ccnc(C(=O)N[C@H](C)C(=O)O[C@@H](C)[C@@H](Oc2ccccc2)C(C)C)c1OCOC(C)=O [Cmpd 559] | – | – | B (≤ 80) | –
16 | COc1ccnc(C(=O)N[C@H](C)C(=O)O[C@H](C)[C@H](Oc2ccccc2)C(C)C)c1OCOC(C)=O [Cmpd 560] | – | – | B (≤ 80) | –
17 | COc1ccnc(C(=O)N[C@@H](C)C(=O)O[C@@H](C)[C@H](Oc2cccc(Cl)c2)C(C)C)c1OC(C)=O [Cmpd 566] | A (> 80) | A (> 80) | – | –
18 | COc1ccnc(C(=O)N[C@@H](C)C(=O)O[C@@H](C)[C@H](Oc2cccc(F)c2)c2ccccc2)c1OCOC(C)=O [Cmpd 574] | A (> 80) | A (> 80) | – | –
19 | CCC(CC)[C@@H](Oc1ccc(F)cc1)[C@H](C)OC(=O)[C@H](C)NC(=O)c1nccc(OC)c1OCOC(C)=O [Cmpd 587] | B (≤ 80) | A (> 80) | – | –
20 | COc1ccnc(C(=O)N[C@@H](C)C(=O)O[C@@H](C)[C@H](Oc2cc(F)cc(Cl)c2)C(C)C)c1OCOC(C)=O [Cmpd 617] | B (≤ 80) | A (> 80) | – | –
21 | COc1ccnc(C(=O)N[C@@H](C)C(=O)O[C@@H](C)[C@H](Oc2cccc(Cl)c2)c2ccccc2)c1OCOC(C)=O [Cmpd 637] | D | B (≤ 80) | – | –
22 | COc1ccnc(C(=O)N[C@@H](C)C(=O)O[C@@H](C)[C@H](Oc2ccccc2Cl)c2ccccc2)c1OC(C)=O [Cmpd 640] | B (≤ 80) | A (> 80) | – | –
23 | COc1ccnc(C(=O)N[C@@H](C)C(=O)O[C@@H](C)[C@H](Oc2cc(F)cc(Cl)c2)c2ccccc2)c1OC(C)=O [Cmpd 642] | A (> 80) | A (> 80) | A (> 80) | –
24 | CCC(C)C(Oc1ccccc1)C(C)OC(=O)C(C)NC(=O)c1nccc(OC)c1OC(C)=O (stereo not drawn) [Cmpd 691] | B (≤ 80) | A (> 80) | – | –
25 | CCC(C)C(Oc1ccccc1)C(C)OC(=O)C(C)NC(=O)c1nccc(OC)c1OCOC(C)=O (stereo not drawn) [Cmpd 692] | A (> 80) | A (> 80) | B (≤ 80) | –
26 | C=CC(C)C(Oc1ccccc1)C(C)OC(=O)C(C)NC(=O)c1nccc(OC)c1OCOC(C)=O (stereo not drawn) [Cmpd 694] | B (≤ 80) | A (> 80) | B (≤ 80) | –
27 | CCC[C@@H](Oc1ccccc1)[C@H](C)OC(=O)[C@H](C)NC(=O)c1nccc(OC)c1OCOC(C)=O [Cmpd 699] | B (≤ 80) | A (> 80) | B (≤ 80) | –
28 | COc1ccnc(C(=O)N[C@@H](C)C(=O)O[C@@H](C)[C@@H](CC(C)C)Oc2ccccc2)c1OCOC(=O)C(C)C [Cmpd 1101] | A (> 80) | B (≤ 80) | – | –
